Data from article doi:10.1101/2024.08.14.606984v2 (biorxiv, 2024).

Target: GCN2 (Homo sapiens, UniProt Q9P2K8)
Experiment: SPR, steady state
Format: binding

GCN2, sequence (Q9P2K8 whole entry): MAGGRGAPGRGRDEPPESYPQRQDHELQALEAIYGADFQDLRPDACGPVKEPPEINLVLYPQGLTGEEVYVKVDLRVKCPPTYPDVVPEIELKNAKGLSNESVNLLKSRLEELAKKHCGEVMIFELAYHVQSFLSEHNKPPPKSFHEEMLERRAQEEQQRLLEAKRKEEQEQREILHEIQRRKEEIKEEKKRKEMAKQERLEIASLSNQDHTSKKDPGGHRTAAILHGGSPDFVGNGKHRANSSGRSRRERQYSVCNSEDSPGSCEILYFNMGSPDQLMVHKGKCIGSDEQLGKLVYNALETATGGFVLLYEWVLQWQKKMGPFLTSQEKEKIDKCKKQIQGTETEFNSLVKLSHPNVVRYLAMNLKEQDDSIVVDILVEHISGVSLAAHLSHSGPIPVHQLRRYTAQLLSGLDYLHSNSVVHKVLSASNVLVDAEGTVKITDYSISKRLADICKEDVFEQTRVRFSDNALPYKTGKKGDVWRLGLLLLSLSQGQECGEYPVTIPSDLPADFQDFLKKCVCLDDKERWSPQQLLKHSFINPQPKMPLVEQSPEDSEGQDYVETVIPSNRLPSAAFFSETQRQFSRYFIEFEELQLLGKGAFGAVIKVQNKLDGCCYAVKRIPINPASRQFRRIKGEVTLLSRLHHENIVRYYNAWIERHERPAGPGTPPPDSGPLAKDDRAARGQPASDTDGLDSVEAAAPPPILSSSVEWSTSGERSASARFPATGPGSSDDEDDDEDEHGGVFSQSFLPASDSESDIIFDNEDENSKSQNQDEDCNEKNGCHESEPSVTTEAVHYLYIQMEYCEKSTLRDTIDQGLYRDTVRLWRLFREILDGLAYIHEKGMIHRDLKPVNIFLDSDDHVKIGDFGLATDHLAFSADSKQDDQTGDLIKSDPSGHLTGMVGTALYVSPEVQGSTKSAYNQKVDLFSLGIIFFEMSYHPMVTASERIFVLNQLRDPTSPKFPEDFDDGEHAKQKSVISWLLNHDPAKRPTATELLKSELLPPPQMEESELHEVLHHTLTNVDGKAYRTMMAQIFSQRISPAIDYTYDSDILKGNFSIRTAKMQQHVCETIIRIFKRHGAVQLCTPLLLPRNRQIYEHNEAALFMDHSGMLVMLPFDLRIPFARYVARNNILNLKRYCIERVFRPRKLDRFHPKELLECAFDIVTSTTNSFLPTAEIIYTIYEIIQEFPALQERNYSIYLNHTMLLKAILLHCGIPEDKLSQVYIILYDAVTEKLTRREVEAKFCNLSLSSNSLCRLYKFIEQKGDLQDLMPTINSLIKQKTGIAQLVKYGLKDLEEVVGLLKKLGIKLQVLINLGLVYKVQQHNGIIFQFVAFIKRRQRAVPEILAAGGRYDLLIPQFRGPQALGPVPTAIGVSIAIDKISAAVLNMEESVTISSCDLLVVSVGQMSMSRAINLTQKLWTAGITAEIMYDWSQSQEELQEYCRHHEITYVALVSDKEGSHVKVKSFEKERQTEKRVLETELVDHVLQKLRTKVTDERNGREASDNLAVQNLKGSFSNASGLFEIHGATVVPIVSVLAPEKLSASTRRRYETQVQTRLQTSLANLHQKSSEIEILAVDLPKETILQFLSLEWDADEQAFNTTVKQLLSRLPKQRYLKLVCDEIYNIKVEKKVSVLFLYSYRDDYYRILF

## CNc1ncc2cc(-c3cc(NC(=O)NCCC(C)(C)C)c(F)cc3C)c(C)nc2n1 [LY-3009120]
  Kd: 43.1 ± 2.5 µM
